# Source: the supplement of paper PMC4862054
# Values joined by “and” are separate entries in the source; they are usually repeats but may differ in a detail not shown here. Equal entries are not always repeated.
# Columns and labels:
# MDA-MB-231 = conditions: 72 h
# Summary of the method: (§1)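 To measure viability, fluorescence at 560/590 nm was read after 2.5 µl CellTiter-Blue had been added for 2 h at 37 °C. Cells from breast cancer lines had been seeded in 20 µl suspension onto 384-well plates pre-loaded with compound dissolved in 5 µl medium and kept for 72 h. EC50 comes from a fitted percent-inhibition dose-response curve censored at the highest concentration, after per-plate normalisation to vehicle and a positive kill control, Z'-factor checks, and removal of rows with zero drug sensitivity score.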
# Hs578T = conditions: 72 h
# Summary of the method: as §1
# MFM-223 [1] = conditions: 72 h
# Summary of the method: as §1
# BT-474 [2] = conditions: 72 h
# Summary of the method: as §1
# HCC1937 = conditions: 72 h
# Summary of the method: as §1
# BT-549 [3] = conditions: 72 h
# Summary of the method: as §1
# CAL-120 = conditions: 72 h
# Summary of the method: as §1
# MDA-MB-468 = conditions: 72 h
# Summary of the method: as §1
# MFM-223 [4] = assay: normalised viability (% of control), CellTiter-Blue; higher = more viable cells (about 100 = DMSO control); conditions: incubation time: 72 h
# Summary of the method: (§2)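 Normalised viability is given for a single listed concentration of the series. In 384-well plates, breast cancer cell lines were incubated 72 h with compound, then read with CellTiter-Blue (2 h, 37 °C) at 560/590 nm. Per-plate scaling set vehicle to 100 and a positive kill control to 0, with Z'-factor quality control.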
# BT-474 [5] = assay: as above; conditions: incubation time: 72 h
# Summary of the method: as §2
# BT-549 [6] = assay: as above; conditions: incubation time: 72 h
# Summary of the method: as §2
# CAL-51 = assay: as above; conditions: incubation time: 72 h
# Summary of the method: as §2
# MDA-MB-436 = conditions: 72 h
# Summary of the method: as §1
# SK-BR-3 = conditions: 72 h
# Summary of the method: as §1
Compound,"EC50, CellTiter-Blue viability (MDA-MB-231)","EC50, CellTiter-Blue viability (Hs578T)","EC50, CellTiter-Blue viability (MFM-223 [1])","EC50, CellTiter-Blue viability (BT-474 [2])","EC50, CellTiter-Blue viability (HCC1937)","EC50, CellTiter-Blue viability (BT-549 [3])","EC50, CellTiter-Blue viability (CAL-120)","EC50, CellTiter-Blue viability (MDA-MB-468)",normalised viability (MFM-223 [4]; 10 nM),normalised viability (MFM-223 [4]; 1000 nM),normalised viability (MFM-223 [4]; 10000 nM),normalised viability (BT-474 [5]; 10 nM),normalised viability (BT-474 [5]; 1000 nM),normalised viability (BT-474 [5]; 10000 nM),normalised viability (BT-549 [6]; 10 nM),normalised viability (BT-549 [6]; 1000 nM),normalised viability (BT-549 [6]; 10000 nM),normalised viability (CAL-51; 3 nM),normalised viability (CAL-51; 30 nM),normalised viability (CAL-51; 100 nM),"EC50, CellTiter-Blue viability (MDA-MB-436)","EC50, CellTiter-Blue viability (SK-BR-3)",normalised viability (MFM-223 [4]; 1 nM),normalised viability (MFM-223 [4]; 100 nM),normalised viability (BT-474 [5]; 1 nM),normalised viability (BT-474 [5]; 100 nM),normalised viability (BT-549 [6]; 1 nM),normalised viability (BT-549 [6]; 100 nM),normalised viability (CAL-51; 0.3 nM),normalised viability (CAL-51; 10 nM)
CNC(=O)c1cc(Oc2ccc(NC(=O)Nc3ccc(Cl)c(C(F)(F)F)c3)c(F)c2)ccn1 [Regorafenib],2370 nM,6690 nM,706 nM,8340 nM,5960 nM,7210 nM,9380 nM,7800 nM,107%,57.1%,31.2%,94.5%,103%,38.8%,98.8%,102%,37.4%,106%,106%,104%,,,,,,,,,,
O=C(/C=C/c1cccc(S(=O)(=O)Nc2ccccc2)c1)NO [Belinostat],684 nM,1890 nM,605 nM,889 nM,578 nM,1890 nM,204 nM,1940 nM,87.8%,37.2%,11.1%,106%,47.5%,2.17%,108%,67.8%,13.1%,101%,103%,115%,553 nM,200 nM,,,,,,,,
Cc1[nH]c2ccccc2c1CCNCc1ccc(/C=C/C(=O)NO)cc1 [Panobinostat],32.6 nM,26.2 nM,39.9 nM,28.6 nM,14.6 nM,125 nM,11.1 nM,88.3 nM,,14.8%,,,9.36%,,,14.7%,,111%,,,107 nM,10.2 nM,102%,20.2%,118%,4.44%,97.7%,68.7%,113%,97.2%
Nc1cc(C(F)(F)F)c(-c2cc(N3CCOCC3)nc(N3CCOCC3)n2)cn1 [BKM-120],1910 nM,3010 nM,1360 nM,1180 nM,2090 nM,1570 nM,887 nM,2330 nM,92.2%,60.2%,14.5%,129%,64.3%,11.1%,78.3%,62.5%,10.8%,100%,92.1%,84.3%,4190 nM,257 nM,,,,,,,,
COCC[n+]1c2c(n(Cc3cnccn3)c1C)C(=O)c1ccccc1C2=O [YM155],2.85 nM,102 nM,17.3 nM,19.4 nM,4.46 nM,50.8 nM,3.68 nM,2.99 nM,62.8%,12.2%,6.53%,84.2%,0.63%,2.25%,83%,0.74%,-0.61%,94.6%,38.9%,11.5%,7.68 nM,8.44 nM,,,,,,,,
CCc1c2c(nc3ccc(OC(=O)N4CCC(N5CCCCC5)CC4)cc13)-c1cc3c(c(=O)n1C2)COC(=O)[C@]3(O)CC [Irinotecan],8350 nM,,9110 nM,,961 nM,4110 nM,1110 nM,1430 nM,88.5% and 97%,100% and 99.8%,,102% and 114%,106% and 109%,97.2% and 105%,80.8% and 86%,82.2% and 84.3%,71% and 62%,106% and 120%,99% and 110%,98.4% and 106%,1010 nM,3740 nM,,,,,,,,
O=C(Nc1ccncc1)C(=O)c1cn(Cc2ccc(Cl)cc2)c2ccccc12 [Indibulin],87.2 nM,938 nM,377 nM,31.3 nM,18.1 nM,135 nM,22.4 nM,61.8 nM,112%,63.7%,68.5%,99.9%,47.2%,39.2%,103%,31.4%,23.5%,106%,104%,102%,64.5 nM,26.1 nM,,,,,,,,
CO[C@H]1C[C@@H]2CC[C@@H](C)[C@@](O)(O2)C(=O)C(=O)N2CCCC[C@H]2C(=O)O[C@H]([C@H](C)C[C@@H]2CC[C@@H](OP(C)(C)=O)[C@H](OC)C2)CC(=O)[C@H](C)/C=C(\C)[C@@H](O)[C@@H](OC)C(=O)[C@H](C)C[C@H](C)/C=C/C=C/C=C/1C [Ridaforolimus],0.95 nM,0.48 nM,0.24 nM,0.55 nM,1.12 nM,0.19 nM,1 nM,0.39 nM,,43.3%,,,61.7%,,,56.8%,,56.2%,,,> 1000 nM,1.36 nM,56.3%,45%,75.5%,63%,62.3%,62.9%,90.1%,38.6%
Cc1cc(Nc2cc(CN3CCOCC3)c3nc(C)c(Cc4ccc(Cl)cc4F)n3n2)n[nH]1,1750 nM,2080 nM,83.5 nM,2920 nM,3820 nM,2370 nM,877 nM,1150 nM,102%,50.6%,44.8%,109%,96.6%,49.7%,97.8%,78.8%,9.99%,97.1%,95.2%,94.2%,1080 nM,3180 nM,,,,,,,,
